# Data from patent US10166217B2, “Fungal keratitis prophylactic or therapeutic agent” (SANTEN PHARMACEUTICAL CO., LTD., priority 2015, dated 2019).
# Tested on: C. albicans
# Assay: Test to evaluate pharmacological effect of rapamycin on animal (rabbit) model of keratomycosis
# Format: in vivo, New Zealand white rabbit
# Description: Test to evaluate pharmacological effect of rapamycin on animal (rabbit) model of keratomycosis
# 4% (w/w) rapamycin solution: This sample was prepared by dissolving rapamycin (Chunghwa Chemical Synthesis & Biotech Co., Ltd.) in a solution containing 4% (w/w) ethanol and […] polyethylene glycol 400.
# About 10 μL of a C. albicans solution (1×10^4 CFU/mL to 5×10^4 CFU/mL) was administered to the central corneal stroma of the right eye of a male New Zealand white rabbit of about 3 kg, and thereby an animal (rabbit) model of keratomycosis was prepared (Cornea, Volume 26, Number 3, 336-342, April 2007).
# For a base administered group (Group 1; N=4), 20 μL of a base (a solution containing 4% (w/w) ethanol and 96% (w/w) polyethylene glycol 400) was administered subconjunctivally on the day of induction.
# For a rapamycin administered group (Group 2; N=4), 20 μL of a 4% (w/w) rapamycin solution (0.88 mg rapamycin) was administered subconjunctivally on the day of induction.
smiles,measurement,setting,value
CO[C@H]1C[C@@H]2CC[C@@H](C)[C@@](O)(O2)C(=O)C(=O)N2CCCC[C@H]2C(=O)O[C@H]([C@H](C)C[C@@H]2CC[C@@H](O)[C@H](OC)C2)CC(=O)[C@H](C)/C=C(\C)[C@@H](O)[C@@H](OC)C(=O)[C@H](C)C[C@H](C)/C=C/C=C/C=C/1C [rapamycin],"clinical scores (McDonald-Shadduck scoring system, slit lamp)","20 μL of 4% (w/w) rapamycin solution (0.88 mg rapamycin), single subconjunctival administration on day of induction, right eye, post-induction days 2 and 5, compared with base administered group, N=4",lower than those of the base administered group
same,duration for which remarkable therapeutic effect on keratomycosis is maintained,"single subconjunctival administration of an injection containing rapamycin, polyethylene glycol and ethanol, rabbit C. albicans keratomycosis model",at least 5 days
